One assay has as its system Abeta total. As to the kind of experiment: Cellular αLisa assay in SKNBE2 cells, Abeta total. In kind it is cell-based, human. The settings on record: incubated for 18 hours. Put shortly:
(§1)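 Human neuroblastoma SKNBE2 cells expressing wild-type hAPP695 were incubated with compound for 18 hours. Secreted Abeta total and Abeta 1-42 in medium were quantified by sandwich αLisa: biotinylated AbN/25 on streptavidin donor beads with Ab4G8 (total) or cAb42/26 (1-42) acceptor beads. Light emission read after 1 hour (ex 650 nm, em 615 nm).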

In the next assay the test system is Abeta 1-42. As to the kind of experiment: Cellular αLisa assay in SKNBE2 cells, Abeta 1-42. In kind it is cell-based, human. To be noted: incubated for 18 hours. Put shortly:
as §1

The target in assay [1] is recombinant BACE1 protein (Homo sapiens, UniProt P56817). Nature of the assay: Biochemical FRET based assay. The settings on record: recombinant BACE1 1 μg/ml, 120 minutes at room temperature, pH 5.0; for IC50: read-out: Biochemical FRET based assay pIC50 (converted). The source says: Biochemical FRET Based Assay
This assay is a Fluorescence Resonance Energy Transfer Assay (FRET) based assay. The substrate for this assay is an APP derived 13 amino acids peptide that contains the ‘Swedish’ Lys-Met/Asn-Leu mutation of the amyloid precursor protein (APP) beta-secretase cleavage site. This substrate also contains two fluorophores: (7-methoxycoumarin-4-yl) acetic acid (Mca) is a fluorescent donor with excitation wavelength at 320 nm and emission at 405 nm and 2,4-Dinitrophenyl (Dnp) is a proprietary quencher acceptor. […] Upon cleavage by BACE1, the fluorophore Mca is separated from the quenching group Dnp, restoring the full fluorescence yield of the donor. The increase in fluorescence is linearly related to the rate of proteolysis.
Briefly in a 384-well format recombinant BACE1 protein in a final concentration of 1 μg/ml is incubated for 120 minutes at room temperature with […] substrate in incubation buffer (40 mM Citrate buffer pH 5.0, 0.04% PEG, 4% DMSO) in the absence or presence of compound. Next the amount of proteolysis is directly measured by fluorescence measurement at T=0 and T=120 (excitation at 320 nm and emission at 405 nm). Results are expressed in RFU (Relative Fluorescence Units), as difference between T120 and TO.

The record followed here is patent publication US9828350B2, “5,6-dihydro-2H-[1,4]oxazin-3-yl-amine derivatives useful as inhibitors of beta-secretase (BACE)” (Janssen Pharmaceutica NV, priority 2010, dated 2017).

Sequence of recombinant BACE1 protein (P56817 46-501): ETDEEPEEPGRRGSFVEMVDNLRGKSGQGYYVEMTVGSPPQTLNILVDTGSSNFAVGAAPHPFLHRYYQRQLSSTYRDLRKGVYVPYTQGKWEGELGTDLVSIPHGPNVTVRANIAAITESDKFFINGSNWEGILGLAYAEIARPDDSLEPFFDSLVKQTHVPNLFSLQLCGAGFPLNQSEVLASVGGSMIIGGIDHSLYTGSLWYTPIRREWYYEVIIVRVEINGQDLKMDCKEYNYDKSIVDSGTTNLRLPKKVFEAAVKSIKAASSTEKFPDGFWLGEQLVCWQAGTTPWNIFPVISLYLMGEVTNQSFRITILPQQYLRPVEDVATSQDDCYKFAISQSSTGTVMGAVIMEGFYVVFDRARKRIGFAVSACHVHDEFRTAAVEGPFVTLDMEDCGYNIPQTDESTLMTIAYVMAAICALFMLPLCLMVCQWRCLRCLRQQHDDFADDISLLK

On to `COc1cncc(-c2ccc(F)c(C3(C)COCC(N)=N3)c2)c1` (single isomer, unassigned) [Compound 156], for which the “Cellular αLisa assay in SKNBE2 cells Abetatotal pIC50” value in the assay on Abeta total was determined as 7.1. The “Cellular αLisa assay in SKNBE2 cells Abeta 42 pIC50” value with Abeta 1-42 is 7.02. Moreover, the “Biochemical FRET based assay pIC50” value in assay [1] is on record as 5.69.

Regarding `CC1(c2cccc(NC(=O)c3ccc(Cl)cn3)c2)COC(F)(C(F)(F)F)C(N)=N1` (single isomer, unassigned) [Compound 157], the “Cellular αLisa assay in SKNBE2 cells Abetatotal pIC50” value with Abeta total is below 5. Moreover, the “Cellular αLisa assay in SKNBE2 cells Abeta 42 pIC50” value with Abeta 1-42 is given as below 5. Also, the “Biochemical FRET based assay pIC50” value in assay [1] was below 4.52.

Consider `COc1cnc(C(=O)Nc2cccc(C3(C)COC(F)(C(F)(F)F)C(N)=N3)c2)cn1` (single isomer, unassigned) [Compound 158], for which the IC50 in the assay on Abeta total (Homo sapiens, SKNBE2, 18 h, read-out: Cellular αLisa assay in SKNBE2 cells Abetatotal pIC50 (converted)) was above 10 µM; with Abeta 1-42 (Homo sapiens, SKNBE2, 18 h, read-out: Cellular αLisa assay in SKNBE2 cells Abeta 42 pIC50 (converted)), above 10 µM; in assay [1], above 30.2 µM.

For `CC1(c2cccc(NC(=O)c3ncc(Cl)cc3F)c2)N=C(N)COC1F` (single isomer, unassigned) [Compound 163], the “Cellular αLisa assay in SKNBE2 cells Abetatotal pIC50” value with Abeta total is on record as 8.05. Moreover, the “Cellular αLisa assay in SKNBE2 cells Abeta 42 pIC50” value in the assay on Abeta 1-42 came to 8.01. Further, the IC50 in assay [1] was 0.0407 µM.

For `CC1(c2cccc(NC(=O)c3ncc(Cl)cc3F)c2)N=C(N)COC1F` (single isomer, unassigned) [Compound 164], in the assay on Abeta total, the “Cellular αLisa assay in SKNBE2 cells Abetatotal pIC50” value is reported as below 5. Besides, the “Cellular αLisa assay in SKNBE2 cells Abeta 42 pIC50” value in the assay with Abeta 1-42 is on record as below 5. For the same molecule, in assay [1], the IC50 was above 30.2 µM.

Take `CC1(c2cccc(NC(=O)c3ncc(Cl)cc3F)c2)N=C(N)COC1(F)C(F)(F)F` (single isomer, unassigned) [Compound 173]: the “Cellular αLisa assay in SKNBE2 cells Abetatotal pIC50” value in the assay with Abeta total is listed as 8.07. Moreover, the “Cellular αLisa assay in SKNBE2 cells Abeta 42 pIC50” value with Abeta 1-42 was determined as 8.11. In assay [1], the IC50 is 0.0219 µM.

Consider `CC1(c2cccc(NC(=O)c3ncc(Cl)cc3F)c2)N=C(N)COC1(F)C(F)(F)F` (single isomer, unassigned) [Compound 175], for which the “Cellular αLisa assay in SKNBE2 cells Abetatotal pIC50” value in the assay on Abeta total turned out to be 5.24. Moreover, the “Cellular αLisa assay in SKNBE2 cells Abeta 42 pIC50” value with Abeta 1-42 is listed as 5.18. The IC50 in assay [1] is 0.295 µM.

As to `COc1cnc(C(=O)Nc2cccc(C3(C)N=C(N)COC3(F)C(F)(F)F)c2)cn1` (single isomer, unassigned) [Compound 176], the “Cellular αLisa assay in SKNBE2 cells Abetatotal pIC50” value with Abeta total was found to be 6.38. Further, in the assay with Abeta 1-42, the “Cellular αLisa assay in SKNBE2 cells Abeta 42 pIC50” value was 6.34. The IC50 in assay [1] was 1.29 µM.

For `COc1cnc(C(=O)Nc2cccc(C3(C)N=C(N)COC3(F)C(F)(F)F)c2)cn1` (single isomer, unassigned) [Compound 177], the “Cellular αLisa assay in SKNBE2 cells Abetatotal pIC50” value in the assay on Abeta total came out at 7.84. Besides, in the assay with Abeta 1-42, the “Cellular αLisa assay in SKNBE2 cells Abeta 42 pIC50” value is listed as 7.83. Further, the IC50 in assay [1] was 0.0251 µM.

For the molecule `COc1cnc(C(=O)Nc2cccc(C3(C)N=C(N)COC3(F)C(F)(F)F)c2)cn1` (single isomer, unassigned) [Compound 178], the “Cellular αLisa assay in SKNBE2 cells Abetatotal pIC50” value in the assay on Abeta total is recorded as 5.35. Further, in the assay on Abeta 1-42, the “Cellular αLisa assay in SKNBE2 cells Abeta 42 pIC50” value was 5.33. In assay [1], the IC50 is 20 µM.

As for `COc1cnc(C(=O)Nc2cccc(C3(C)N=C(N)COC3(F)C(F)(F)F)c2)cn1` (single isomer, unassigned) [Compound 179], the “Cellular αLisa assay in SKNBE2 cells Abetatotal pIC50” value in the assay on Abeta total is below 5. The “Cellular αLisa assay in SKNBE2 cells Abeta 42 pIC50” value in the assay with Abeta 1-42 was below 5. Besides, the IC50 in assay [1] was above 30.2 µM.

For `CC1(c2cccc(NC(=O)c3ccncn3)c2)N=C(N)COC1(F)C(F)(F)F` (single isomer, unassigned) [Compound 188], the “Cellular αLisa assay in SKNBE2 cells Abetatotal pIC50” value with Abeta total is listed as 6.93. For the same molecule, the “Cellular αLisa assay in SKNBE2 cells Abeta 42 pIC50” value in the assay on Abeta 1-42 was determined as 6.91. Moreover, the IC50 in assay [1] is 0.437 µM.

On to `CC1(c2cccc(NC(=O)c3ccncn3)c2)N=C(N)COC1(F)C(F)(F)F` (single isomer, unassigned) [Compound 190], for which, in the assay on Abeta total, the “Cellular αLisa assay in SKNBE2 cells Abetatotal pIC50” value is 5.25. In addition, the “Cellular αLisa assay in SKNBE2 cells Abeta 42 pIC50” value in the assay with Abeta 1-42 was 5.2. Also, the IC50 in assay [1] is above 30.2 µM.
